In general, viability refers to a per cent measure of how many cells are alive, often set against a control. The low end stands for a greater loss of cells, the high end for better survival.

SMILES strings stand for the structures.

Data set [1] is described as follows: anti-oxidation activity in a lipid oxidation process promoted by a metal ion (copper sulfate). To be noted: 5 μM copper sulfate added; lesser ratio = stronger. The method, then:
The anti-oxidation activities was evaluated according to the method by A. Ben Aziz et al. (see Phytochemistry, 10, 1445, 1971). That is to say, an emulsion of linoleic acid and β-carotene was first prepared with Tween 20 (Sigma) and adjusted to pH 7.0 with 0.1 M trishydroxyaminomethane-hydrochloride. To the emulsion was added 0.0005% of a substance to be tested, and the mixture was reacted at 25° C.
During the reaction, the color degradation of β-carotene in association with the autoxidation of linoleic acid was measured with the passage of time as the decreased value of the optical density at 460 nm with a spectrophotometer.
The substance to be tested was a garcinal preparation obtained in Referential Example 1, and vitamin E and (+)-catechin were used as Comparative Example. The antioxidant activity was measured as a ratio of the decreasing rate of absorbance in the presence of the substance to be tested to the decreasing rate of absorbance in the absence of the antioxidant. That is, the substance is judged to have an antioxidant activity when the ratio is less than 1, and thus it is predicated that the lesser the ratio, the stronger the antioxidant activity.
The oxidation process of linoleic acid in Experimental Example 1 is promoted by a metal ion. If 5 μM of copper sulfate is added to the reaction system, the color-degradation rate of β-carotene is promoted by about 30%. When garcinol was added to this system, the ratio of the decreasing rate of absorbance was 0.57. In this connection, it was 0.13 for vitamin E and 0.84 for (+)-catechin.

A short description of data set [2]: DPPH radical scavenging activity. The method, then:
The 1,1-diphenyl-2-picrylhydrazyl (DPPH) radical scavenging activity was tested with a garcinol preparation prepared in the similar manner as described in Referential Example 1. That is to say, a 1.0×10^-4 M solution (50% ethanolic) of DPPH was prepared, 0.0002% of a test substance was added, and the decrease of optical density at 528 nm was measured after 1 hour reaction at 25° C. for one hour. In this case, ascorbic acid was used as a standard, the decrease of the absorbance was expressed as 100, and the radical scavenging activity of the test substance was measured as equivalences to ascorbic acid. In this connection, a garcinol preparaion used as the test substance, and vitamin E and (+)-catechin were used as references.

In data set [3] the test system is gastric ulcer. Put plainly: anti-ulcer test against stress ulcer (restrained immersion into water). The data set is classed as in vivo, Wistar/ST male rats. To be noted: 200 mg/kg oral. The protocol: Gastric ulcer was induced in Wistar/ST male rats having a weight of about 200 g (6 w) by the stress of restrained immersion into water and the anti-ulcer effects of the test samples were examined in the following groups to which test samples were administered.
Each group comprises six rats.
Group 1: (control) physiological saline
Group 2: (comparative) cetraxate hydrochloride 200 mg/kg
Group 3: (the present invention) garcinol 200 mg/kg
In this connection, the test samples in the control, comparative group and the present invention group were prepared in the same manner as in Experimental Example 9.
Rats having fasted for 24 hours were locked up in a restrained dipping cage after 30 minutes from the oral administration of respective test samples. Next, rats were stressed by dipping the cage into water at 23° C. for 7 hours, and bleeded to death under anesthetization with nembutal, and stomach was isolated. A phosphate buffer (10 ml) containing 10% formalin was injected into the stomach, which was cut open after 10 minutes, and the length of lesion caused in the glandular stomach portion was defined as the lesion index, which was measured in the mm unit to evaluate the anti-ulcer effect.
The method for calculating the suppression rate (%) and the meaning of it has been described in Experimental Example 9.

For data set [4], the system named is bovine lens α-crystallin. Put plainly: α-crystallin crosslinking polymerization inhibiting activity. The data set is classed as biochemical. To be noted: 0.1 mM, 500 mM D-fructose, pH 7.4, 37° C., 2 weeks. The method, then:
The effect of garcinol on bovine lens α-crystallin crosslinking polymerization reaction was evaluated. […] The gel after electrophoresis was stained with Coomassie Brilliant Blue, and the protein amounts in bands were determined with a densitometer. The crosslinking polymerization inhibiting activity of the protein was calculated from the following equation.
Protein polymerization inhibiting activity (%)=(Ps-Pc)/Pc×100
polymerization degree of protein=band density of polymerized protein/band density of monomer protein;
Ps: polymerization degree of protein in the presence of test substance;
Pc: polymerization degree of protein in the absence of test substance.

Data set [5] concerns bovine serum albumin. Nature of the data set: Maillard reaction inhibiting activity (bovine serum albumin/D-fructose). To be noted: 0.1 mM, 37° C., 5 days, pH 7.4.
Protocol: A solution containing bovine serum albumin (4 mg/ml), 500 mM D-fructose and 200 mM potassium phosphate buffer (pH 7.4) was aseptically prepared. To the solution was added 0.1 mM of a test substance. The substance insoluble in water was added as an ethanolic solution so as the final concentration of ethanol to be less than 1%. After incubation of these solutions at 37° C. for 5 days, equivalent volume of a cold 10% trichloroacetic acid solution was added to the solution to precipitate proteins. The precipitate was collected by centrifugation, further washed with a cold 5% trichloroacetic acid solution, and dissolved again in a 200 mM potassium phosphate buffer. The solution was diluted appropriately with distilled water, and the fluorescence intensity at 425 nm was measured with an excitation wave length at 350 nm in a fluorescence spectrophotometer (Shimadzu Seisakusho, Ltd.). The inhibition activity was calculated from the following equation.
Inhibition activity (%)=(Fc-Fs)/(Fc-Fb)×100
Fs: fluorescence intensity in the presence of test substance;
Fc: fluorescence intensity in the absence of test substance;
Fb: fluorescence intensity in the absence of fructose.
Data set [6] has as its system mice. Details: species or system ICR/crj male mice. To be noted: mouse, in vivo. The method, then:
ICR/crj male mice (5 week-old) having a weight of 29-32 g, each group comprising 5 animals.
Toxicity test by single administration was carried out in accordance with Guidelines of the Toxicity Test Method for Pharmaceuticals (Nichi-Yaku-Shin No. 118, released on Feb. 15, 1984, Notice of Second Section Manager of Examination of Pharmaceutical Affairs Bureau in Ministry of Health and Welfare to the Managers of Hygiene Division of Prefectures).
Garcinol was suspended into a physiological saline in a concentration of 30 mg/ml, and the suspension was administered orally to mice at a dose of 0.5 ml per 30 g of body weight (500 mg/kg of body weight) for observation for 14 days.

Data set [7] in a line: superoxide scavenging activity test with phenazine methosulfate. To be noted: 40 μM final concentration. The method, then: The active oxygen scavenging activity was evaluated according to the superoxide scavenging activity test with phenazine methosulfate. That is to say, dihydronicotinamide adenine dinucleotide and phenazine methosulfate were first reacted in a buffer at a physiological hydrogen ion concentration. The absorbance at 560 nm of a formazan pigment produced by the reduction of Nitro Blue Tetrazolium with superoxide was measured. […] The ratio of decreases of absorbance was expressed as superoxide scavenging activity.

The nature of data set [8]: survival rate of the cells in the EBV-EA induction inhibiting test. The data set is classed as cell-based. To be noted: human, raji cells, 8 μg/ml. The method, then: The EBV potentially infected human lymphoblasts (Raji) were first prepared in a concentration of 5×10^5 cell/ml, and cultured in an RPMI-1640 medium to which 3 mM n-butyric acid (inducer) and 50 nM TPA (12-O-tetradecanoylphorbol-13-acetate) (promoter) were added in an atmosphere of 5% carbon dioxide and 95% air under at a temperature of 37° C. for 48 hours. The cells in which EBV-EA had been induced were detected microscopically by indirect immunofluorescence with the serum of a nasopharyngeal carcinoma (NPC) patient. In this system, various concentrations (8 μg/ml, 40 μg/ml, and 200 μg/ml) of the test substance (garcinol sample shown in Referential Example 1) dissolved in DMSO (dimethylsolfoxide) were added together with the promoter to the cells. The activity of suppressing the induction of the Epstein-Barr virus early antigen was defined as the decreasing rate of the cells in which EBV-EA had been induced.

For `C=C(C)[C@@H](CC=C(C)C)C[C@@]12C[C@@H](CC=C(C)C)C(C)(C)[C@@](CC=C(C)C)(C(=O)C(C(=O)c3ccc(O)c(O)c3)=C1O)C2=O` [garcinol], the “ratio of the decreasing rate of absorbance (antioxidant activity with metal ion)” value in data set [1] is recorded as 0.57. Besides, the “DPPH radical scavenging activity (equivalences to ascorbic acid = 100)” value in data set [2] (0.0002% test substance, 1.0×10^-4 M DPPH, 25° C., 1 hour, 528 nm) was 85. Also, the “radical scavenging activity per unit weight relative to vitamin E” value in data set [2] (per unit weight of vitamin E) was “about three times”. Besides, the Length of ulcer in data set [3] (restrained water immersion 23° C., 7 hours, control 44.20 ± 18.10) is reported as 17.60 ± 9.96 mm. In data set [3] (stress ulcer, vs. control), this molecule had a Suppression rate of 60.2%. In addition, the “protein polymerization inhibiting activity” value in data set [4] came to 68%. In data set [5], the “Maillard reaction inhibition activity” value is given as 97%. The “microscopic disorders in tissues or organs (autopsy)” value in data set [6] is on record as “no microscopic disorders in tissues or organs were observed”. For the same molecule, the superoxide scavenging rate in data set [7] was found to be 75%. The same molecule had a viability at 48 h in data set [8] of at least 80%.

The values above are taken from patent US5972357A, “Healthy foods and cosmetics” (Kikkoman Corporation, priority 1996, dated 1999).
